# Laboratory results taken from patent US20050181457A1, “FcyrIII signaling inhibitor assay” (priority 2002, published 2005).
# Test system: FcγRIII signaling
# Assay: FcγRIII signaling inhibitor assay: IgG2a-complex stimulated DC18 C10 cells, hTNFα promoter-luciferase reporter
# Assay type: cell-based, mouse
# Conditions: DC18 C10 cells stimulated with IgG2a complexes; inhibitor at its described IC50 concentration; FIG. 3
# Protocol: Cells are transfected by electroporation at optimised conditions (200V, 960 pF) with a TNFα promoter—luciferase—TNFα 3′ end construct and plated in 10 ml of medium immediately after electroporation and purified by Lymphoprep the next day. 1×10^4 viable cells per well are plated in 96 well microtiter plates in 100 μl of medium each plus 250 μg/ml of geneticin (G418). Two days later 100 μl of fresh medium are added. Every second day 100 μl of medium are removed and substituted by 100 μl of fresh medium. Stable clones are selected by conventional cell culture methods and single cell cloning. […] The best responder is subjected to one round of further limited dilution cloning (single cell cloning) and named DC18 clone10 (=DC18 C10). This clone is selected for all further studies.
# 1×10^4 cells are seeded in 50 μl medium per well (Optiplate, Packard). Incubation with candidate compounds is done for 45 minutes prior to stimulation with 5 μg/ml of murine IgG of different subtypes complexed either with 10 μg/ml of DNP-BSA or 30 μg/ml of rabbit anti mouse Ig F(ab′)2 fragments. Stimulation is carried on for further 4 hours. Subsequently 13 μl of a 5 times concentrated reporter lysis buffer (Promega) are added and cells are lysed by freeze-(−80°) thaw cycle. For the readout 50 μl of luciferase substrate (Promega) are added and luciferase activity is measured in a MicroBetaJet (Wallac). […]
structure (smiles),measurement,value
O=c1cc(-c2ccc(O)cc2)oc2cc(O)cc(O)c12 [Apigenin],inhibition of IgG2a complexes-provoked luciferase induction (readout),inhibits IgG2a complexes-provoked luciferase induction
